Assay results reported in patent publication US20100292205A1, “Pyrimidone Compounds As GSK-3 Inhibitors” (PFIZER INC., priority 2006, published 2010).

Target: T1, Recombinant human GSK3β (Homo sapiens, UniProt P49841)
T1 construct: His-tag; made in house; host or cells: Sf9 insect cells / baculovirus
Test: GSK-3β (Glycogen Synthase Kinase) cell free enzyme assay
Format: biochemical
Conditions: 1 μM; Examples 157-199; read-out: Percent inhibition at 1 μM
Method in brief: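 Recombinant human GSK3β, expressed in SF9/baculovirus cells and His-tag purified on Ni-NTA Superflow, was preincubated with test agent for 30 minutes at room temperature. Substrate mix was then added to start the reaction in 8 mM MOPS (pH 7.0), 10 mM magnesium acetate, 0.2 mM EDTA, 1 mM DTT, 2 uM cold ATP, 0.025 uCi/well [33P]ATP (120 uL) and 1.0 uM biotinylated peptide. Reactions ran at RT for 60 min.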

T1 sequence (P49841 whole entry): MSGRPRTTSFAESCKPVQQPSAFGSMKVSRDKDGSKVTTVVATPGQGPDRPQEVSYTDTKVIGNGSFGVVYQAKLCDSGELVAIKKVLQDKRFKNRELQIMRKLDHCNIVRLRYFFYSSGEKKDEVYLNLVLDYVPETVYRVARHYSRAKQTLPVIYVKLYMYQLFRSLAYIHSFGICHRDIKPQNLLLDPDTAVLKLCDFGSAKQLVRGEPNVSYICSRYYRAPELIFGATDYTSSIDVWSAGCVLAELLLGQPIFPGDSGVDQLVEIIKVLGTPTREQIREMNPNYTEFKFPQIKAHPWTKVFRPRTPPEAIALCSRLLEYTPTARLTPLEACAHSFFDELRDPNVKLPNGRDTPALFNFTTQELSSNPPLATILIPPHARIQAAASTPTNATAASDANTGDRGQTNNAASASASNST

Going from `CN(c1nc(-c2ccncc2)cc(=O)n1C)[C@H]1CC[C@H]2N(S(=O)(=O)c3ccccc3)CC[C@@]2(C)C1` [Example 178, 3-Methyl-2-{methyl[(3a,S5,S7,aR)-3a-methyl-1-(phenylsulfonyl)octahydro-1H-indol-5-yl]amino}-6-pyridin-4-ylpyrimidin-4(3H)-one] to `CCN(c1nc(-c2ccncc2)cc(=O)n1C)C1CCN(S(=O)(=O)c2ccccc2)CC1` [Example 187, 2-{Ethyl[1-(phenylsulfonyl)piperidin-4-yl]amino}-3-methyl-6-pyridin-4-ylpyrimidin-4(3H)-one], the inhibition at 1 µM rises from 100% to 102%.

Going from `Cn1c(NCC2CN(S(=O)(=O)c3ccccc3)C2)nc(-c2ccncc2)cc1=O` [Example 190, 3-Methyl-2-({[1-(phenylsulfonyl)azetidin-3-yl]methyl}amino)-6-pyridin-4-ylpyrimidin-4(3H)-one] to `Cn1c(N[C@@H]2CN(S(=O)(=O)c3ccccc3)C[C@@H]2F)nc(-c2ccncc2)cc1=O` [Example 184, 2-{[(3R,4S)-4-Fluoro-1-(phenylsulfonyl)pyrrolidin-3-yl]amino}-3-methyl-6-pyridin-4-ylpyrimidin-4(3H)-one], the inhibition at 1 µM rises from 35% to 100%.

Going from `CCN(c1nc(-c2ccncc2)cc(=O)n1C)C1CCN(S(C)(=O)=O)CC1` [Example 165, 2-{Ethyl[1-(methylsulfonyl)piperidin-4-yl]amino}-3-methyl-6-pyridin-4-ylpyrimidin-4(3H)-one] to `CCN(c1nc(-c2ccncc2)cc(=O)n1C)C1CCCN(S(C)(=O)=O)CC1` (stereo not shown) [Example 163, 2-{Ethyl[1-(methylsulfonyl)azepan-4-yl]amino}-3-methyl-6-pyridin-4-ylpyrimidin-4(3H)-one], the inhibition at 1 µM rises from 80% to 100%.

Molecule `Cn1c(NC2CCN(S(=O)(=O)c3ccccc3)C2)nc(-c2ccncc2)cc1=O` (stereo not shown) [Example 174, 3-Methyl-2-{[1-(phenylsulfonyl)pyrrolidin-3-yl]amino}-6-pyridin-4-ylpyrimidin-4(3H)-one] has an inhibition at 1 µM of 95%.

Same assay, conditions: 1 μM; Examples 201-221

With `COC(=O)N1CCCC(N(C)c2nc(-c3ccncc3)cc(=O)n2C)CC1` (stereo not shown) [Example 214, Methyl 4-[methyl(1-methyl-6-oxo-4-pyridin-4-yl-16-dihydropyrimidin-2-yl)amino]azepane-1-carboxylate] the “Percent inhibition at 1 μM” value was 99%.

Same assay, conditions: 1 μM; Examples 201-221; read-out: Percent inhibition at 1 μM

First: COC(=O)N1CC(Nc2nc(-c3ccncc3)cc(=O)n2C)C1 [Example 209, Methyl 3-[(1-methyl-6-oxo-4-pyridin-4-yl-16-dihydropyrimidin-2-yl)amino]azetidine-1-carboxylate]
Second: COC(=O)N1CCC[C@@H]1CNc1nc(-c2ccncc2)cc(=O)n1C [Example 220, Methyl (2R)-2-{[(1-methyl-6-oxo-4-pyridin-4-yl-16-dihydropyrimidin-2-yl)amino]methyl}pyrrolidine-1-carboxylate]
The inhibition at 1 µM of the first is lower: 80% for the first, 91% for the second.

Same assay, conditions: 1 μM; Examples 236-262; read-out: Percent inhibition at 1 μM

First: Cn1c(NC2CCCN(Cc3ccccc3)CC2)nc(-c2ccncc2)cc1=O (stereo not shown) [Example 237, 2-[(1-Benzylazepan-4-yl)amino]-3-methyl-6-pyridin-4-ylpyrimidin-4(3H)-one]
Second: Cn1c(NC2CCCCN(Cc3ccccc3)C2)nc(-c2ccncc2)cc1=O (stereo not shown) [Example 252, 2-[(1-Benzylazepan-3-yl)amino]-3-methyl-6-pyridin-4-ylpyrimidin-4(3H)-one]
The inhibition at 1 µM of the first is higher: 84% for the first, 74% for the second.

Same assay, conditions: 1 μM; GSK-3β cell free enzyme assay; Examples 42-60; read-out: Percent inhibition at 1 μM

Going from `CC(=O)N1CC[C@@]2(C)C[C@H](N(C)c3nc(-c4ccncc4)cc(=O)n3C)CC[C@@H]12` [Example 55, 2-{[(3a,S5,R7,aR)-1-Acetyl-3a-methyloctahydro-1H-indol-5-yl](methyl)amino}-3-methyl-6-pyridin-4-ylpyrimidin-4(3H)-one] to `CC(=O)N1CCCC(Nc2nc(-c3ccncc3)cc(=O)n2C)C1` (stereo not shown) [Example 48, 2-[(1-Acetylpiperidin-3-yl)amino]-3-methyl-6-pyridin-4-ylpyrimidin-4(3H)-one], the inhibition at 1 µM falls from 71% to 55%.

Same assay, conditions: cell free enzyme assay; Examples 1-35

`Cn1c(NC[C@H]2CCN(C(=O)OC(C)(C)C)C2)nc(-c2ccncc2)cc1=O` [Example 14, tert-butyl (3R)-3-{[(1-Methyl-6-oxo-4-pyridin-4-yl-1,6-dihydropyrimidin-2-yl)amino]methyl} pyrrolidine-1-carboxylate] and `Cn1c(N2CC[C@@H]3CN(C(=O)OC(C)(C)C)C[C@@H]32)nc(-c2ccncc2)cc1=O` [Example 26, tert-butyl (3aR,6aR)-1-(1-Methyl-6-oxo-4-pyridin-4-yl-1,6-dihydropyrimidin-2-yl)hexahydropyrrolo [3,4-b]pyrrole-5(1H)-carboxylate] are within 1.5-fold of each other in IC50: 74 nM for the first, 97 nM for the second.

In the case of `CCN(c1nc(-c2ccncc2)cc(=O)n1C)C1CCCN(C(=O)OC(C)(C)C)CC1` (stereo not shown) [Example 15, tert-butyl 4-[Ethyl(1-methyl-6-oxo-4-pyridin-4-yl-1,6-dihydropyrimidin-2-yl)amino]azepane-1-carboxylate], the IC50 is reported as 31 nM.

Same assay, conditions: cell free enzyme assay; Examples 62-155

`CN(c1nc(-c2ccncc2F)cc(=O)n1C)[C@H]1[C@@H]2CN(C(=O)c3ccc(F)c(F)c3)C[C@@H]21` [Example 153, 2-{[(1R,5S,6s)-3-(3,4-Difluorobenzoyl)-3-azabicyclo[3.1.0]hex-6-yl](methyl)amino}-6-(3-fluoropyridin-4-yl)-3-methylpyrimidin-4(3H)-one] and `CN(c1nc(-c2ccncc2F)cc(=O)n1C)[C@H]1[C@@H]2CN(C(=O)c3ccc(OC(F)F)cc3)C[C@@H]21` [Example 113, 2-[{(1R,5S,6s)-3-[4-(Difluoromethoxy)benzoyl]-3-azabicyclo[3.1.0]hex-6-yl}(methyl)amino]-6-(3-fluoropyridin-4-yl)-3-methylpyrimidin-4(3H)-one] are within 1.5-fold of each other in IC50: 7.23 nM for the first, 8.57 nM for the second.

First: CCCCOc1ccc(C(=O)N2C[C@@H]3[C@H](C2)[C@H]3N(C)c2nc(-c3ccncc3F)cc(=O)n2C)cc1 [Example 123, 2-{[(1R,5S,6s)-3-(4-Butoxybenzoyl)-3-azabicyclo[3.1.0]hex-6-yl](methyl)amino}-6-(3-fluoropyridin-4-yl)-3-methylpyrimidin-4(3H)-one]
Second: COc1ccccc1C(=O)N1C[C@@H]2[C@H](C1)[C@H]2N(C)c1nc(-c2ccncc2F)cc(=O)n1C [Example 106, 6-(3-Fluoropyridin-4-yl)-2-{[(1R,5S,6s)-3-(2-methoxybenzoyl)-3-azabicyclo[3.1.0]hex-6-yl](methyl)amino}-3-methylpyrimidin-4(3H)-one]
The IC50 of the first is 15-fold higher: 13.6 nM for the first, 0.91 nM for the second. The second is the more potent here.

First: COC(=O)CCCC(=O)N1C[C@@H]2[C@H](C1)[C@H]2N(C)c1nc(-c2ccncc2F)cc(=O)n1C [Example 143, Methyl 5-[(1R,5S,6s)-6-{[4-(3-fluoropyridin-4-yl)-1-methyl-6-oxo-1,6-dihydropyrimidin-2-yl](methyl)amino}-3-azabicyclo[3.1.0]hex-3-yl]-5-oxopentanoate]
Second: CN(c1nc(-c2ccncc2F)cc(=O)n1C)[C@H]1[C@@H]2CN(C(=O)Cc3ccccc3)C[C@@H]21 [Example 115, 6-(3-Fluoropyridin-4-yl)-3-methyl-2-{methyl[(1R,5S,6s)-3-(phenylacetyl)-3-azabicyclo[3.1.0]hex-6-yl]amino}pyrimidin-4(3H)-one]
The IC50 of the first is 4-fold higher: 57.4 nM for the first, 14.2 nM for the second.

Compared with `Cn1c(NC2CCN(C(=O)c3ccccc3)CC2)nc(-c2ccncc2)cc1=O` [Example 65, 2-[(1-Benzoylpiperidin-4-yl)amino]-3-methyl-6-pyridin-4-ylpyrimidin-4(3H)-one], `Cn1c(N[C@H]2CN(C(=O)Cc3ccccc3)C[C@@H]2F)nc(-c2ccncc2)cc1=O` [Example 83, 2-{[(3S,4S)-4-Fluoro-1-(phenylacetyl)pyrrolidin-3-yl]amino}-3-methyl-6-pyridin-4-ylpyrimidin-4(3H)-one] is 5.2-fold lower in IC50: 202 nM for the first, 39 nM for the second.

Same assay, conditions: cell free enzyme assay; Examples 222-234

Going from `Cn1c(N[C@@H]2CCCN(C(=O)OCc3ccncc3)C2)nc(-c2ccncn2)cc1=O` [Example 233, Pyridin-4-ylmethyl (3R)-3-[(1-methyl-6-oxo-1,6-dihydro-4,4′-bipyrimidin-2-yl)amino]piperidine-1-carboxylate] to `COC(=O)N1CCC[C@@H](Nc2nc(-c3ccncn3)cc(=O)n2C)C1` [Example 228, Methyl (3R)-3-[(1-methyl-6-oxo-1,6-dihydro-4,4′-bipyrimidin-2-yl)amino]piperidine-1-carboxylate], the IC50 falls from 5 nM to 0.994 nM (5-fold).

Molecule `CCOC(=O)N1CCC[C@@H](N(C)c2nc(-c3ccncn3)cc(=O)n2C)C1` [Example 230, Ethyl (3R)-3-[methyl(1-methyl-6-oxo-1,6-dihydro-4,4′-bipyrimidin-2-yl)amino]piperidine-1-carboxylate] has an IC50 of 0.95 nM.

Same assay, conditions: cell free enzyme assay; Examples 265-291

`CCOCCn1nnnc1N1C[C@@H]2[C@H](C1)[C@H]2N(C)c1nc(-c2ccncc2F)cc(=O)n1C` [Example 273, 2-[{(1R,5S,6s)-3-[1-(2-Ethoxyethyl)-1H-tetrazol-5-yl]-3-azabicyclo[3.1.0]hex-6-yl}(methyl)amino]-6-(3-fluoropyridin-4-yl)-3-methylpyrimidin-4(3H)-one] and `CN(c1nc(-c2ccncc2F)cc(=O)n1C)[C@H]1[C@@H]2CN(c3nc4ccccc4o3)C[C@@H]21` [Example 270, 2-{[(1R,5S,6s)-3-[1,3-Benzoxazol-2-yl)-3-azabicyclo[3.1.0]hex-6-yl](methyl)amino}-6-(3-fluoropyridin-4-yl)-3-methylpyrimidin-4(3H)-one] are within 1.5-fold of each other in IC50: 29 nM for the first, 24.6 nM for the second.

For `CN(c1nc(-c2ccncc2F)cc(=O)n1C)[C@H]1[C@@H]2CN(c3nc(C(F)(F)F)c(C(=O)OCc4ccccc4)s3)C[C@@H]21` [Example 268, Benzyl 2-[(1R,5S,6s)-6-{[4-(3-fluoropyridin-4-yl)-1-methyl-6-oxo-1,6-dihydropyrimidin-2-yl](methyl)amino}-3-azabicyclo[3.1.0]hex-3-yl]-4-(trifluoromethyl)-1,3-thiazole-5-carboxylate], the IC50 was 126 nM.
